Test results from patent publication US10231954B2, “Neurodegenerative therapies” (LYTIX BIOPHARMA AS, priority 2014, dated 2019).

Legend:
S6K1 = S6K1 (Homo sapiens, UniProt P23443); assay: Kinase profiling S6K1; assay type: biochemical
Excerpt: (§1) Any value less that 25 is considered to be highly significant inhibition.

CAMKKb = CAMKKb (Homo sapiens, UniProt Q96RR4); assay: Kinase profiling CAMKKb; assay type: biochemical
Excerpt: as §1

LKB1 = biological target: T1, LKB1 (Homo sapiens, UniProt Q15831); assay: Kinase profiling LKB1; assay type: biochemical
T1 sequence (Q15831 1-433): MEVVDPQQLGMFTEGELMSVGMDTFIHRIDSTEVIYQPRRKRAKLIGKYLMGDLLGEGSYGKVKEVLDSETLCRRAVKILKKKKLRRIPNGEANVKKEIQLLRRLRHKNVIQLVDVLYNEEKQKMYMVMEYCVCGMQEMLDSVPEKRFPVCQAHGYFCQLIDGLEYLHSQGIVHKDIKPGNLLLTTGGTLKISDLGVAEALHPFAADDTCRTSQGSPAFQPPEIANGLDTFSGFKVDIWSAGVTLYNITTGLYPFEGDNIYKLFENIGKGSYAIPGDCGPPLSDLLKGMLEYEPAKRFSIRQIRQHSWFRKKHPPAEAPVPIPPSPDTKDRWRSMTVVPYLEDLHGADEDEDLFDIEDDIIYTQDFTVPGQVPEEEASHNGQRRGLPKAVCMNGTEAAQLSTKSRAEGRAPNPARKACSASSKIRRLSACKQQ
T1 sequence (Q7RTN6 1-431 partner): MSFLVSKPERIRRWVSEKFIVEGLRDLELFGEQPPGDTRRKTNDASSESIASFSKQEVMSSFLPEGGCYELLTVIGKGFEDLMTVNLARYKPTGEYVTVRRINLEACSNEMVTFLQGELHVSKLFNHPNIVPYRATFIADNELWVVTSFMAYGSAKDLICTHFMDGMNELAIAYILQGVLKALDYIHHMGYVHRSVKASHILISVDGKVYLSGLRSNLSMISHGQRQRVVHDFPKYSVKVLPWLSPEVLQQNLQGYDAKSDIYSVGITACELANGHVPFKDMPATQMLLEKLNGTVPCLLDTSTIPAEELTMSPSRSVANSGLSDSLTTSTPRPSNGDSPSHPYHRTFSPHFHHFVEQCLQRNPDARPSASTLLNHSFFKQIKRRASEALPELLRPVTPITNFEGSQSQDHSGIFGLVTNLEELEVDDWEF
T1 sequence (Q9Y376 1-341 partner): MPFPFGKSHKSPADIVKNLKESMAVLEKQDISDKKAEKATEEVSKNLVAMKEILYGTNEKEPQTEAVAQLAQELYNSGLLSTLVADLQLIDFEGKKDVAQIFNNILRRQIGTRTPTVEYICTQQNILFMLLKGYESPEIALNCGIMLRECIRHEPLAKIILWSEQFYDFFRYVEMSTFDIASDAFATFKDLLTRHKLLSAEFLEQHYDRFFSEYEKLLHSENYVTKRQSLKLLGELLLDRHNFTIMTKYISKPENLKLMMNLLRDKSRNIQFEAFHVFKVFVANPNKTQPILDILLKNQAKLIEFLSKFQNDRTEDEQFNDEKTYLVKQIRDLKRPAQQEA
Excerpt: as §1

AMPK (hum) = assay: Kinase profiling AMPK (hum); assay type: biochemical, human
Excerpt: as §1

HIPK2 = HIPK2 (Homo sapiens, UniProt Q9H2X6); assay: Kinase profiling HIPK2; assay type: biochemical
Sequence of HIPK2 (Q9H2X6 whole entry, species assumed): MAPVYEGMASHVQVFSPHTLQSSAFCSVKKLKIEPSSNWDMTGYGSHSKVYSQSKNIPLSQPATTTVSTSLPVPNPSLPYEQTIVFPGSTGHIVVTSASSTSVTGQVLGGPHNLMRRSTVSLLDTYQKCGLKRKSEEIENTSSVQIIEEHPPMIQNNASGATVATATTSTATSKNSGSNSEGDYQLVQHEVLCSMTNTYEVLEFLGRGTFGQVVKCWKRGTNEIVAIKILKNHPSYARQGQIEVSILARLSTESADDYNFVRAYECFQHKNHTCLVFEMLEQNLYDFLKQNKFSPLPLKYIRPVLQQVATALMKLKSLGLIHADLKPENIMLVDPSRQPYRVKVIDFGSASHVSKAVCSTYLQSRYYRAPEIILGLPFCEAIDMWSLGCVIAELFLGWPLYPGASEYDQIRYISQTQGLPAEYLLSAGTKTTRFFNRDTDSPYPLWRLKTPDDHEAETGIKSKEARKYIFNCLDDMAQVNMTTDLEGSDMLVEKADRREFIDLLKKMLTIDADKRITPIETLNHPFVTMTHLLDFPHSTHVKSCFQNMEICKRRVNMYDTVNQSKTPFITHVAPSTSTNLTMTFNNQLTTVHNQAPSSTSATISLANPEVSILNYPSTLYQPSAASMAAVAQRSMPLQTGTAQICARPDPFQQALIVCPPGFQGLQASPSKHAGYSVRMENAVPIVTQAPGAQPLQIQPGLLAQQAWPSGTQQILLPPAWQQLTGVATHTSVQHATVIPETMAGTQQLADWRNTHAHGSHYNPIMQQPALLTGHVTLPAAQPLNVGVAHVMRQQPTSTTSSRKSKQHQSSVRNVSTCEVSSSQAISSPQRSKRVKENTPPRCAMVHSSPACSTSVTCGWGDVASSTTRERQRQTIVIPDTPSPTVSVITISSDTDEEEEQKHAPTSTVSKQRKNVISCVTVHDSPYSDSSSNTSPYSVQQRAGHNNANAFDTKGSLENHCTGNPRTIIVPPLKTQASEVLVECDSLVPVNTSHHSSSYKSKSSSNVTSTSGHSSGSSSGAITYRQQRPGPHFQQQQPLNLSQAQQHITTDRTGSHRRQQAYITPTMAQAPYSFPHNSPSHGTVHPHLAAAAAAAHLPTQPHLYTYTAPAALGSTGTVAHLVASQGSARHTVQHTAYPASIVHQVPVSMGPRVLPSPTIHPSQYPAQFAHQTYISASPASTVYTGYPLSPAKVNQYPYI
Excerpt: as §1

PAK4 = PAK4 (Homo sapiens, UniProt O96013); assay: Kinase profiling PAK4; assay type: biochemical
Sequence of PAK4 (O96013 whole entry, species assumed): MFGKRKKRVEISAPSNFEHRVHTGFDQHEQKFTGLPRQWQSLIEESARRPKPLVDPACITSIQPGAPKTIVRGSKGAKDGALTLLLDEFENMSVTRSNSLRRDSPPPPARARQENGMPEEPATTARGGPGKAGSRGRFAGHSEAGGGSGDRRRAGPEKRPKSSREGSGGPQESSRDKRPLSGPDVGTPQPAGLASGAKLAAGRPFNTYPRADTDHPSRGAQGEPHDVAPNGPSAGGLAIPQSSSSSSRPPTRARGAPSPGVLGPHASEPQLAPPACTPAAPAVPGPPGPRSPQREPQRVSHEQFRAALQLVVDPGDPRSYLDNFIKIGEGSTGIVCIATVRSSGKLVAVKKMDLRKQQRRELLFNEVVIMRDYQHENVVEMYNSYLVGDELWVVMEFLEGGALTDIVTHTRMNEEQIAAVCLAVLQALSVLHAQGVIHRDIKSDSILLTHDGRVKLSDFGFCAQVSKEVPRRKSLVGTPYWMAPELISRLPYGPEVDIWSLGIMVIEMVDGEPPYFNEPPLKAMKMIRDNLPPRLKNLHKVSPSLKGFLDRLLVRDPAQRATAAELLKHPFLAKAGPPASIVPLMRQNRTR
Excerpt: as §1

MST2 = biological target: T2, MST2 (Homo sapiens, UniProt Q13188); assay: Kinase profiling MST2; assay type: biochemical
T2 sequence (Q13188 1-491): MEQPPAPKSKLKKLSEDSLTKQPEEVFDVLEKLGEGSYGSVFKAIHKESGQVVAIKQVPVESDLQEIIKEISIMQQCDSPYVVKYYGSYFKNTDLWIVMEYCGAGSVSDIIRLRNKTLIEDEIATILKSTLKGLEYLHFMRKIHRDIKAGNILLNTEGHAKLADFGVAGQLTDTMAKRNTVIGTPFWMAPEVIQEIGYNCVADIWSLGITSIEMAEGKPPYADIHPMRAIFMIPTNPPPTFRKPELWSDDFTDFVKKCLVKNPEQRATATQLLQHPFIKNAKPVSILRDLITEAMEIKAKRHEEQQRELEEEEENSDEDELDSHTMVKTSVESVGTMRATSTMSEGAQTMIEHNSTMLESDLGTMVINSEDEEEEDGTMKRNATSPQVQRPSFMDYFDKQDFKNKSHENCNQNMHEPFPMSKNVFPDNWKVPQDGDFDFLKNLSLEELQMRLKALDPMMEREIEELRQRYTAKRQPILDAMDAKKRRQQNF
Excerpt: as §1

TAK1 = biological target: T3, TAK1 (Homo sapiens, UniProt O43318); assay: Kinase profiling TAK1; assay type: biochemical
T3 sequence (O43318 1-303 limits assumed): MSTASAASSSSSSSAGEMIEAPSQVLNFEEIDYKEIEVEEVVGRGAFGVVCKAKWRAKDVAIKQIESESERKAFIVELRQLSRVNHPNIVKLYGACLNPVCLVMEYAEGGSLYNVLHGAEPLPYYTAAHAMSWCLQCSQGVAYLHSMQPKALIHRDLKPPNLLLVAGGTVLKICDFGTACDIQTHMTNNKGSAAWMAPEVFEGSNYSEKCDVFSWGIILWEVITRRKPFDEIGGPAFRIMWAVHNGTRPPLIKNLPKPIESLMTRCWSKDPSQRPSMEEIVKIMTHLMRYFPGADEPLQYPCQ
T3 sequence (Q15750 437-504 partner limits assumed): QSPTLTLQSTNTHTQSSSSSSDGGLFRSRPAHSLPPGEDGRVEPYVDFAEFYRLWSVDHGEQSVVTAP
Excerpt: as §1

[1] = 100 micromolar inhibitor concentration, 100 is no change
[2] = 100 micromolar inhibitor, 100 = no change

Sequence of S6K1 (P23443 whole entry, species assumed): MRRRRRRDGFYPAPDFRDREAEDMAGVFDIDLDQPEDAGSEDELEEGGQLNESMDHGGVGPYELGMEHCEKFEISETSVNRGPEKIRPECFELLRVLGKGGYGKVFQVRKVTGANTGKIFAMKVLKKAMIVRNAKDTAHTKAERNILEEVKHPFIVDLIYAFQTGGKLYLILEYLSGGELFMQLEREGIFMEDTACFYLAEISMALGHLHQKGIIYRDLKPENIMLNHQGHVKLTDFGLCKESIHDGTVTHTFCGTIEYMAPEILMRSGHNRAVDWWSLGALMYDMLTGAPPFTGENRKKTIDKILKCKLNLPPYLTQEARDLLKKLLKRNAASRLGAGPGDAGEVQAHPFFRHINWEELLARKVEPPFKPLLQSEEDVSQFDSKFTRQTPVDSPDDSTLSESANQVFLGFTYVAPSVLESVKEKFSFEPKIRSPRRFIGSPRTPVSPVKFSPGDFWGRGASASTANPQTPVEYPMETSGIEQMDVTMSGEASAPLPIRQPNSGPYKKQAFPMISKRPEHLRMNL
Sequence of CAMKKb (Q96RR4 whole entry, species assumed): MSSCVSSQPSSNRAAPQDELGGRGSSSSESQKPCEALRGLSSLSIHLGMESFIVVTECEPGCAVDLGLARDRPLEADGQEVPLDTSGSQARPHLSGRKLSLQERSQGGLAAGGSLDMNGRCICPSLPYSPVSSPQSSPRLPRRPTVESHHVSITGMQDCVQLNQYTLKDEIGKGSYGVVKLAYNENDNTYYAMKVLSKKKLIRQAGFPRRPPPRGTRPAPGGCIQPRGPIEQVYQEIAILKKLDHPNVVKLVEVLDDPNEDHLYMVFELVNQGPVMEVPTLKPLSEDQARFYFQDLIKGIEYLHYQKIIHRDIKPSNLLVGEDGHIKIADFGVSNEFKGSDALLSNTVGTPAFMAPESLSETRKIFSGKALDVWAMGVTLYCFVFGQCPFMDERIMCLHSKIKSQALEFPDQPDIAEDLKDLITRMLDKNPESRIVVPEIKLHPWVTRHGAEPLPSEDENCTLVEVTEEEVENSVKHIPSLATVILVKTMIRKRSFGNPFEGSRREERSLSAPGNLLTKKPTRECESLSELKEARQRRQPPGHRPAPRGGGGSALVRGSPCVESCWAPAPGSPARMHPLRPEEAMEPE

Row | Compound | residual kinase activity, S6K1 (S6K1; [1]) | residual kinase activity, CAMKKb (CAMKKb; [1]) | residual kinase activity, LKB1 (LKB1; [1]) | residual kinase activity, AMPK (hum) (AMPK (hum); [1]) | residual kinase activity, HIPK2 (HIPK2; [1]) | residual kinase activity, PAK4 (PAK4; [1]) | residual kinase activity, MST2 (MST2; [1]) | residual kinase activity, TAK1 (TAK1; [1]) | also measured
1 | O=C(Nc1nc2ccc(F)cc2s1)c1ccccc1 [Compound 03-92] | 79 | 80 | 100 | 76 | 78 | 111 | 110 | 79 | –
2 | CC(=O)Nc1nc2ccc(F)cc2s1 [Compound 03-94] | 67 | 67 | 46 | 59 | 27 | 66 | 91 | 26 | –
3 | COc1ccc2sc(NC(=O)c3ccccc3)nc2c1 [Compound 03-95] | 77 | 54 | 72 | 75 | 74 | 107 | 95 | 45 | –
4 | COc1ccc2nc(NC(=O)c3ccccc3)sc2c1 [Compound 03-98] | 76 | 45 | 118 | 94 | 41 | 37 | 86 | 60 | –
5 | O=C(Nc1nc2ccc(C(F)(F)F)cc2s1)c1ccccc1 [Compound 03-99] | 86 | 86 | 103 | 73 | 90 | 154 | 93 | 95 | –
6 | O=C(Nc1nc2cc(O)ccc2s1)c1ccccc1 [Compound 03-102] | 42 | 32 | 33 | 49 | 36 | 67 | 46 | 31 | –
7 | COC(=O)c1cccc(C(=O)Nc2nc3ccc(C(F)(F)F)cc3s2)c1 [Compound 03-105, Methyl 3-((6-(trifluoromethyl)benzo[d]thiazol-2-yl)carbamoyl)benzoate] | – | – | – | 71 | – | – | – | – | remaining activity at 100 µM (S6K1; read-out: residual kinase activity, S6K1): 78%; remaining activity at 100 µM (CAMKKb; read-out: residual kinase activity, CAMKKb): 48%; remaining activity at 100 µM (LKB1; read-out: residual kinase activity, LKB1): 91%; remaining activity at 100 µM (HIPK2; read-out: residual kinase activity, HIPK2): 72%; remaining activity at 100 µM (PAK4; read-out: residual kinase activity, PAK4): 89%; remaining activity at 100 µM (MST2; read-out: residual kinase activity, MST2): 99%; remaining activity at 100 µM (TAK1; read-out: residual kinase activity, TAK1): 76%
8 | N#Cc1ccc2nc(NC(=O)c3ccccc3)sc2c1 [Compound 03-106] | 78 | 67 | 107 | 80 | 62 | 94 | 103 | 37 | –
9 | COC(=O)c1cccc(C(=O)Nc2nc3cc(OC)ccc3s2)c1 [Compound 03-108] | 95 | 80 | 90 | 101 | 87 | 100 | 77 | 81 | –
10 | COC(=O)c1cccc(C(=O)Nc2nc3ccc(F)cc3s2)c1 [Compound 03-110] | 91 | 62 | 92 | 69 | 66 | 83 | 88 | 68 | –
11 | COc1ccc2sc(NC(=O)c3cccc(C(N)=O)c3)nc2c1 [Compound 03-113] | 79 | 70 | 95 | 96 | 96 | 109 | 119 | 35 | –
12 | COc1ccc2nc(C(=O)Nc3ccccc3)sc2c1 [Compound 13-03] | – | – | – | – | – | – | – | – | residual kinase activity, S6K1 (S6K1; [2]): 90; residual kinase activity, CAMKKb (CAMKKb; [2]): 91; residual kinase activity, LKB1 (LKB1; [2]): 110; residual kinase activity, AMPK (hum) (AMPK (hum); [2]): 99; residual kinase activity, HIPK2 (HIPK2; [2]): 96; residual kinase activity, PAK4 (PAK4; [2]): 58; residual kinase activity, MST2 (MST2; [2]): 107; residual kinase activity, TAK1 (TAK1; [2]): 96
